Data taken from the Kinase Knowledgebase extract (Sharma et al. 2016).
“And” between values parts separate entries of the source, which are not always exact repeats. Equal values may be shown once. Blank lines part the entries; values can stand above or below the compound they belong to.

Legend:
[1] = biological target: MAPK14 (human) (UniProt Q16539); assay: Enzyme Assay
[2] = biological target: EGFR (human) (UniProt P00533)
[3] = biological target: EGFR (human) (UniProt P00533); remark: listed apart in the source
[4] = biological target: EGFR (mouse) (UniProt P00533); conditions: balb/mk cells
[5] = biological target: PIK3CG (human) (UniProt P48736); assay: Inhibition of PIK3CG Kinase Activity
[6] = biological target: PIK3CA (human) (UniProt P42336); assay: Inhibition of PIK3CA Kinase Activity (FP Assay)
Chain of PIK3CA (human) (P42336 whole entry, looked up): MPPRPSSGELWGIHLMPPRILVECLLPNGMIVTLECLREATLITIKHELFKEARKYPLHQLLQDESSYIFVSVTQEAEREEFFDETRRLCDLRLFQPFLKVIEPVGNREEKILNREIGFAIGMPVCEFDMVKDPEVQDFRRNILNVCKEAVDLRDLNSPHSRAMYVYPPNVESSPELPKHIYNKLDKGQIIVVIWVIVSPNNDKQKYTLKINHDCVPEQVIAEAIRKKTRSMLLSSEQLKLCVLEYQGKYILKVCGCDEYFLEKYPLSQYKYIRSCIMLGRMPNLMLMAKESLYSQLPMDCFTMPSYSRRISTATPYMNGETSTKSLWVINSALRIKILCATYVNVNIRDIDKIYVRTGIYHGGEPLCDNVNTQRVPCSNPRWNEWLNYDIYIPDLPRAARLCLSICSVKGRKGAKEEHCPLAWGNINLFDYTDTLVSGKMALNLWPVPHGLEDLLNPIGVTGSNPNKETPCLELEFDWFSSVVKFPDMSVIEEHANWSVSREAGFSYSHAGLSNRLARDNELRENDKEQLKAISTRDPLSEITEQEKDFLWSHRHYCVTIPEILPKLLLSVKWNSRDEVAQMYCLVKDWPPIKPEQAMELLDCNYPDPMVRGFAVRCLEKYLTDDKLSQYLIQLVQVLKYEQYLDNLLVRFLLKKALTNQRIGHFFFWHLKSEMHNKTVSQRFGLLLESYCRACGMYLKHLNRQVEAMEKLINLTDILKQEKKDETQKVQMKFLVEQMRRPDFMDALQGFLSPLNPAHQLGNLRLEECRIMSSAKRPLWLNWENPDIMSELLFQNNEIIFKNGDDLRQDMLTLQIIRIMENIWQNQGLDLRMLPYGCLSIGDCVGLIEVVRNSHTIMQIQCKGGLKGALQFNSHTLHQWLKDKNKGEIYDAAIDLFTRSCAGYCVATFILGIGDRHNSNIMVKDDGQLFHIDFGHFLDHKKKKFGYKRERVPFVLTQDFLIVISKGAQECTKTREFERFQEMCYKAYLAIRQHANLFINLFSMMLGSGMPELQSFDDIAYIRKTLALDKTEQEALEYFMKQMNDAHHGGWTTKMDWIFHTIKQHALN

[7] = biological target: EGFR (human) (UniProt P00533); remark: listed apart in the source
[8] = biological target: EGFR (human) (UniProt P00533); conditions: a431
[9] = biological target: EGFR (human) (UniProt P00533); conditions: a549
[10] = biological target: EGFR (human) (UniProt P00533); conditions: A431
[11] = biological target: PIK3CA (human) (UniProt P42336); assay: Inhibition of PIK3CA Kinase Activity in HeLa Cells
[12] = biological target: EGFR (human) (UniProt P00533); conditions: a431; remark: listed apart in the source
[13] = biological target: ROCK2 (human) (UniProt O75116); assay: Enzyme Assay
Chain of ROCK2 (human) (O75116 whole entry, looked up): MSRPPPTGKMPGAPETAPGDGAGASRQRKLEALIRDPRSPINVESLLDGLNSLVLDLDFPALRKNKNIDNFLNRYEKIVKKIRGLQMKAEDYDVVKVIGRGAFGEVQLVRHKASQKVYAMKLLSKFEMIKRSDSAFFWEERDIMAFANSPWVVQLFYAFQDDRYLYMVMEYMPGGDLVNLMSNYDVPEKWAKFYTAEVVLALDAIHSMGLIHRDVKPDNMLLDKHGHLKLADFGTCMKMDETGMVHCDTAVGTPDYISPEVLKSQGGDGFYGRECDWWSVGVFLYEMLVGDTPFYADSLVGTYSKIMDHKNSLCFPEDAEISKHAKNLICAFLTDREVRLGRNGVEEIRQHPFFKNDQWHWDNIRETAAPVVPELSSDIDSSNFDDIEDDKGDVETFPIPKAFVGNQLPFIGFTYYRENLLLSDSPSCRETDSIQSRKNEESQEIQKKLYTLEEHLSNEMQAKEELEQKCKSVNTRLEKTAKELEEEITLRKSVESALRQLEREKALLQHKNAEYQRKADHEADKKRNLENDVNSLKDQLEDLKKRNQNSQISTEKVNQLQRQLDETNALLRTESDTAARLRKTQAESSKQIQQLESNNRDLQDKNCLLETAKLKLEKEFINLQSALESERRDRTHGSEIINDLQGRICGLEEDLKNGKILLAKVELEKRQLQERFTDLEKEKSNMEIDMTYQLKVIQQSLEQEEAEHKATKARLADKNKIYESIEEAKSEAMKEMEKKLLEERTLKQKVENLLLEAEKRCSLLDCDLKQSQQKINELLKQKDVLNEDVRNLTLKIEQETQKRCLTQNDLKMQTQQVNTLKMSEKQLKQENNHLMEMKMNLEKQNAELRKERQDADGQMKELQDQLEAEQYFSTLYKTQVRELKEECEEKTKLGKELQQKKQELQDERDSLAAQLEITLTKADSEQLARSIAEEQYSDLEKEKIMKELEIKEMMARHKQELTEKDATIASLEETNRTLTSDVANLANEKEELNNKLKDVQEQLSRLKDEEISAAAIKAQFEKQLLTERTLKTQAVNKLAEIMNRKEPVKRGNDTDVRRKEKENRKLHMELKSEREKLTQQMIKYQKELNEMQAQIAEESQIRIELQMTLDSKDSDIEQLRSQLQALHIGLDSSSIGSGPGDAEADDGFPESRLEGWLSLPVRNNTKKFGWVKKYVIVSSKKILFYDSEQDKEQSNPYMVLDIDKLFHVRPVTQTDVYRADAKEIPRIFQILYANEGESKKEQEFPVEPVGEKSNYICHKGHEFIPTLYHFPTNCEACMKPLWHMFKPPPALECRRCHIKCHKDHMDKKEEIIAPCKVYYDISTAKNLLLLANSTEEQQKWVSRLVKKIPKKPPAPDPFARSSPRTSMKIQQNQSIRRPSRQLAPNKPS

[14] = biological target: ROCK2 (human) (UniProt O75116); assay: Enzyme Assay; remark: listed apart in the source
[15] = biological target: EGFR (human) (UniProt P00533); remark: listed apart in the source
[16] = biological target: EGFR (UniProt P00533)
[17] = biological target: MAPK14 (human) (UniProt Q16539); assay: Inhibition of MAPK14 Kinase Activity
[18] = biological target: MAPK14 (human) (UniProt Q16539); assay: Inhibition of MAPK14 Kinase Activity; remark: listed apart in the source
[19] = biological target: EGFR (human) (UniProt P00533); remark: listed apart in the source
[20] = biological target: EGFR (human) (UniProt P00533); conditions: kb
[21] = biological target: EGFR (human) (UniProt P00533); remark: listed apart in the source
[22] = biological target: EGFR (human) (UniProt P00533); conditions: a431; remark: listed apart in the source
[23] = biological target: EGFR (human) (UniProt P00533); remark: listed apart in the source
[24] = biological target: PIK3CA (human), P42336 [Wild-Type]; assay: Assessment of Proliferation of NZB5 Cells Expressing Wild-Type PIK3CA Kinase
Chain of PIK3CA (human), P42336 [Wild-Type] (P42336 whole entry, looked up): as the sequence (P42336 whole entry, looked up) above

[25] = biological target: MAPK14 (human) (UniProt Q16539); assay: p38 --- IL-1 Inhibition (PBMC cells)
[26] = biological target: MAPK14 (human) (UniProt Q16539); assay: p38 --- TNF Inhibition (PBMC cells)
[27] = biological target: MAPK14 (UniProt Q16539); assay: p38-alpha 2 Inhibition
Chain of MAPK14 (Q16539 whole entry, looked up): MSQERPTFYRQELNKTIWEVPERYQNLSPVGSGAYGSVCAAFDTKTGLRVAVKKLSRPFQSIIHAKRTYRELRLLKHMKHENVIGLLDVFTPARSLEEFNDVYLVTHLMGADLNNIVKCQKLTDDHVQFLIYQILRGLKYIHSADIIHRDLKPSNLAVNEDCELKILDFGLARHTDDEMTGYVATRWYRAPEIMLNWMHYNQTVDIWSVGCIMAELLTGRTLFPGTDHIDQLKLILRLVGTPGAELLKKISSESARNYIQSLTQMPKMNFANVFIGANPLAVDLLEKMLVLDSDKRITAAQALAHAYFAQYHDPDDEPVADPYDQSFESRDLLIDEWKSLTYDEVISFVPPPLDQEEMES

[28] = biological target: EGFR (human) (UniProt P00533); remark: listed apart in the source
[29] = biological target: CDK2 (UniProt P24941); assay: Enzyme Assay
[30] = biological target: CDK2 (UniProt P24941); assay: Enzyme Assay; remark: listed apart in the source
[31] = biological target: MAPK14 (human) (UniProt Q16539); assay: Enzyme Assay; remark: listed apart in the source
[32] = biological target: ROCK2 (human) (UniProt O75116)

Chain of MAPK14 (human) (Q16539 whole entry, looked up): as above
Chain of EGFR (human) (P00533 whole entry, looked up): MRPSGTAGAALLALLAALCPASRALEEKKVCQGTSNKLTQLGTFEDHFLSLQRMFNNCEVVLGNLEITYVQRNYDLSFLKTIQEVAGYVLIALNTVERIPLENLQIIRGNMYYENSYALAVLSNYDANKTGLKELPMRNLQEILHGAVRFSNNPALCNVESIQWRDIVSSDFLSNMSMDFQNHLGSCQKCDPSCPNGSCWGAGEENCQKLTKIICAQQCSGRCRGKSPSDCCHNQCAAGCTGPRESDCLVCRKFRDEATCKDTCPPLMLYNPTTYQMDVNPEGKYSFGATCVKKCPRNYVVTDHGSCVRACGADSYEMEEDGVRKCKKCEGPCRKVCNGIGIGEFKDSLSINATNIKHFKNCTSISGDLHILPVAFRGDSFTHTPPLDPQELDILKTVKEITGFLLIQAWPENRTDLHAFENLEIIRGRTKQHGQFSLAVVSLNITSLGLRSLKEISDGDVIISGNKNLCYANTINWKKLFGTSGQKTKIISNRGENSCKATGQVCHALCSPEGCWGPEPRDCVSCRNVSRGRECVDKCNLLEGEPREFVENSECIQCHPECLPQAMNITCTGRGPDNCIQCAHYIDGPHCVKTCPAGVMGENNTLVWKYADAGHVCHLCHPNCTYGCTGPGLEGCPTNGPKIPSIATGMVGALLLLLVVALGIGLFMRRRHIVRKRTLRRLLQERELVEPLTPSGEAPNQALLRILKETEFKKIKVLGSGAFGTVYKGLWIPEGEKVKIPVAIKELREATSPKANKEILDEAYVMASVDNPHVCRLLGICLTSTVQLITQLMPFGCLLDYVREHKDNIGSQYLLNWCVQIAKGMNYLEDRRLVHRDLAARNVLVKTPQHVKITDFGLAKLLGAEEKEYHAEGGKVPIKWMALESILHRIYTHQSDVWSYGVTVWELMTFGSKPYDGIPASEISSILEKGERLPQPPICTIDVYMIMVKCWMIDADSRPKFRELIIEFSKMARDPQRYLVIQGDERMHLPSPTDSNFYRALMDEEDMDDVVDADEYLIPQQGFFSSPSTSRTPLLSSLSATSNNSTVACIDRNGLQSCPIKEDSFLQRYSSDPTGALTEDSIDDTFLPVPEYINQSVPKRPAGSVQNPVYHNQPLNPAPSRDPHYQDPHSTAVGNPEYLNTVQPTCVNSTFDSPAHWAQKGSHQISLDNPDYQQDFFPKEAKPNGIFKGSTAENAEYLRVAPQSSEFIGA

Compound: C[C@H](NC(=O)c1ccc(S(=O)(=O)Oc2ccc(/C=C/[N+](=O)[O-])cc2)cc1)C(=O)N[C@@H](C)C(=O)NCCN
- IC50 [4]: > 50000 nM

Compound: COC[C@H]1OC(=O)/C(=C/N(C)CCCN(C)C)C2=C(O)C(=O)C3=C([C@H](OC(C)=O)C[C@@]4(C)C3CC[C@@H]4O)[C@]21C (stereo not given in full)
- IC50 [5]: 8 nM
- IC50 [6]: 6.4 nM

Compound: CNC(=O)c1ccc(S(=O)(=O)Oc2ccc(/C=C/[N+](=O)[O-])cc2)cc1
- IC50 [12]: 37500 nM

Compound: CCn1cnc2c(Nc3cccc(Cl)c3)nc(N[C@H]3CC[C@@H](N)CC3)nc21
- IC50 [16]: 5300 nM

Compound: CONC(=O)c1ccc(C)c(Nc2nc(NCC3CCCC(CN)C3)nc(NC3CCCCC3C)n2)c1 (stereo not given)
- IC50 [17]: 2 nM
- IC50 [18]: 2 nM

Compound: CONC(=O)c1ccc(C)c(Nc2nc(NCC3CCCC(CN)C3)nc(NC3CCCCC3)n2)c1 (stereo not given)
- IC50 [17]: 2 nM
- IC50 [18]: 2 nM

Compound: C[C@H](NC(=O)c1ccc(S(=O)(=O)Oc2ccc(/C=C/[N+](=O)[O-])cc2)cc1)C(=O)N[C@@H](C)C(=O)OC(C)(C)C
- IC50 [12]: 37500 nM

Compound: C[C@H](NC(=O)[C@H](C)NC(=O)c1ccc(S(=O)(=O)Oc2ccc(/C=C/[N+](=O)[O-])cc2)cc1)C(=O)O
- IC50 [4]: > 50000 nM

Compound: Oc1cccc2c1nc(C(F)F)n2-c1nc(N2CCOCC2)cc(N2CCOCC2)n1
- IC50 [24]: 100 nM

Compound: Cc1cccc(Sc2ccc3c(-c4c(Cl)cccc4Cl)c(=O)ncn3n2)c1
- IC50 [25]: 210 nM
- IC50 [26]: 280 nM

Compound: NC(=O)c1ccccc1NC(=O)Nc1ccc(Cl)c(Cl)c1
- IC50 [27]: 100 nM

Compound: O=C(Nc1cc(C2[C@H]3C[C@@H]4C[C@@H](C[C@H]2C4)C3)no1)Nc1cccc(Cl)c1Cl (stereo not given in full)
- inhibition ([27]; concentration not given here): 9%

Compound: Cc1ccc(Sc2ccc3c(-c4c(Cl)cccc4Cl)c(=O)ncn3n2)cc1
- IC50 [25]: 350 nM
- IC50 [26]: 870 nM

Compound: O=C(O)C[C@@H](NC(=O)c1ccc2c(c1)OCc1cnccc1-2)c1ccccc1
- IC50 [32]: 516 nM

Further lines, results first:

- activity ([1]; 1.0 µM): 3%
- activity ([1]; 10.0 µM): 0%
- activity ([2]; 1.0 µM): 54%
- activity ([2]; 10.0 µM): 6%
Compound: Oc1c(-c2ccc(F)cc2)c(-c2ccncc2)nn1-c1ccc(Cl)cc1

- IC50 [3]: > 10000 nM
Compound: Cc1cc(N2CCN(CCC#N)CC2)cc2[nH]c(-c3c(NC[C@@H](O)c4ccccc4Cl)cc[nH]c3=O)nc12

- IC50 [7]: 1380 nM
- IC50 [8]: 2250 nM
- IC50 [9]: 14200 nM
Compound: COc1cc(O)c2c(=O)n(-c3cccc(C(=O)NC4CCCC4)c3)ccc2c1

- IC50 [10]: 14100 nM
- EC50 [11]: 12200 nM
Compound: Cc1ccc(Sc2cccc3[nH]c4nc(N)nc(N)c4c23)cc1

- IC50 [13]: 4.1 nM
- IC50 [14]: 1 nM
Compound: NCc1ccc(C(=O)Nc2ccncc2F)cc1-c1cccc(C(=O)Nc2ccc(C(=O)O)cc2)c1

- IC50 [15]: 5900 nM
Compound: COc1cc2ncnc(Oc3ccc(Br)cc3F)c2cc1OC

- IC50 [19]: 4600 nM
Compound: COc1cc2c(cc1OC)Oc1ncnc(Oc3cccc(Br)c3)c1N(C)C2

- IC50 [20]: 17 nM
Compound: COc1cc2ncnc(Nc3cccc(Cl)c3F)c2cc1OC1CCN(CC(=O)NCCN2CCCC2)CC1

- IC50 [21]: 1130 nM
- IC50 [22]: 8500 nM
Compound: COCC=CC(=O)Nc1ccc2ncnc(Nc3cccc(Br)c3)c2c1

- IC50 [23]: 6 nM
Compound: Nc1nc(Nc2cccc(Cl)c2)c2c(n1)[nH]c1ccccc12

- IC50 [28]: 100 to 1000 nM
Compound: CN(C/C=C/C(=O)Nc1cccc(-n2nc(-c3ccc(Cl)cc3)c3c(N)ncnc32)c1)C1CC1

- IC50 [29]: 296 nM
- IC50 [30]: 2550 nM
Compound: COc1ccc2c(-c3ccc(N4CCC(N)C4)cc3)nc(N)nc2c1C(C)C (stereo not given)

- IC50 [15]: 6900 nM
Compound: COC(=O)Nc1ccc(Nc2ncnc3cc(OC)c(OC)cc23)cc1

- IC50 [31]: > 30000 nM and 3300 nM
- IC50 [1]: 184 nM
Compound: Cc1cccc(COc2nc(C)n(-c3cc(-c4ccnc(C(C)(C)O)n4)ccc3C)c(=O)c2Cl)n1

- IC50 [21]: 74 nM
- IC50 [22]: 1890 nM
Compound: O=C(C=CCN1CCOCC1)Nc1ccc2ncnc(Nc3cccc(Br)c3)c2c1
